{"source": "patent US20070224128A1", "about": "“Drug adherence monitoring system” (priority 2006, published 2007)", "key": {"[1]": {"settings": "cited from earlier work"}, "[2]": {"settings": "water at 25° C.; cited from earlier work"}, "[3]": {"tested_on": "rat", "settings": "cited from earlier work"}, "[4]": {"tested_on": "rat", "settings": "4H; cited from earlier work"}, "[5]": {"molecular_target": "human recombinant CYP2D6 (Homo sapiens, UniProt P10635)", "sequence (P10635 whole entry)": "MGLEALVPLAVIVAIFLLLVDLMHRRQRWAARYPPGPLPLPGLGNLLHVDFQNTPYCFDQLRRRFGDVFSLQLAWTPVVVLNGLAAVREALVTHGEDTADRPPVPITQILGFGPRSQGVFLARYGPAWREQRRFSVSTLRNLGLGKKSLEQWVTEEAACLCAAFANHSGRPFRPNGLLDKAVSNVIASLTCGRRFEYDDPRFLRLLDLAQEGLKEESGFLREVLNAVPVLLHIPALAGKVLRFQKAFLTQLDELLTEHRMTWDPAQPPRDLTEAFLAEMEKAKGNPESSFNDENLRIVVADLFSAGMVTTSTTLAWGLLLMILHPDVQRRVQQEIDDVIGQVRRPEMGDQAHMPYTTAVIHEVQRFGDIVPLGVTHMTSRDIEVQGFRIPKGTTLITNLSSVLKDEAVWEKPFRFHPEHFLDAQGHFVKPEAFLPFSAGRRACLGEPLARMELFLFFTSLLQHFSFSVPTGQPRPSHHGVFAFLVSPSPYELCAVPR", "procedure": "CYP 2D6 inhibition assays were performed by Novascreen (Hanover, Md.). In brief, after 100 μL solution containing the compounds (dextromethorphan or trifluoroethyldextrorphan, concentration ranging from 10^−10 M to 10^−5M) and mixed 50 μL cofactor solution were preincubated in 100 mM potassium phosphate buffer (pH=7.4) for 10 min at 37° C., 50 μL of freshly mixed solution of human recombinant CYP2D6 (1.5 pmole) and AMMC (1.5 μM) was added to each well. The final cofactor concentrations were 1.3 mM NADP^+, 3.3 mM glucose-6-phosphate, 0.4 U/ml glucose-6-phosphate dehydrogenase. Samples were incubated for 45 minutes and the reaction was stopped with 75 μL Tris/acetonitrile stop solution. Quinidine was used as the reference compound. The AMMC metabolite, AMHC, was measured using a fluorescent plate scanner at an excitation wavelength of 390 nm and emission wavelength of 460 nm."}, "[6]": {"tested_on": "human liver microsomes", "experiment": "Human liver microsomes assay: trifluoroacetaldehyde captured from headspace, GC/MS", "settings": "2 mg/mL human liver microsome, 1 mM trifluoroethyldextrorphan, 1.5 hours, determined as DNPH derivative", "method": "Microsomal incubations were conducted in 1.5 mL polypropylene vials containing 2 mg/mL human liver microsome, 5.2 mM NADP^+, 13.2 mM glucose-6-phosphate, 1.6 U/ml glucose-6-phosphate dehydrogenase, 6.6 mM magnesium chloride and 1 mM trifluoroethyldextrorphan in 100 mM potassium phosphate buffer (pH 7.5). The total volume was 1.5 mL.\nLpDNPH S10 cartridges were employed to collect trifluoroacetaldehyde produced from incubation mixture for 1.5 hours through suction generated by a 5 mL syringe. The incubations were performed in triplicate. […]\nA Thermo Finnigan Polaris Q Mass Spectrometer (MS) system (consists of a Polaris Q MS, a TRACE GC, and the Xcalibur Data System) was used. […] Negative chemical ionization (NCI) mode was used for identification and quantitation of trifluoroacetaldehyde 2,4-dinitrophenylhydrazone. […]\n[^15N4]trifluoroacetaldehyde 2,4-dinitrophenylhydrazone was used as an internal standard for the determination of trifluoroacetaldehyde as its DNPH derivative. Quantitation was performed by selected ion monitoring (SIM) of most intensive fragment ions trifluoroacetaldehyde 2,4-dinitrophenylhydrazone (m/z 182) against the internal standard [^15N4]trifluoroacetaldehyde 2,4-dinitrophenylhydrazone (m/z 185). […]\nThe fragment ions m/z 182 and 185 were monitored for quantitation. […]"}}, "note": "Counter-ions that a name gives are not always drawn. Like-named read-outs stand apart in the source and are kept apart here.", "data": [{"smiles": "OC(C(F)(F)F)(C(F)(F)F)C(F)(F)F", "note": "[R′3]", "values": [{"measurement": "VP", "setting": "[1]; at 20° C.", "value": 268, "unit": "torr"}, {"measurement": "Solubility", "setting": "[2]", "value": "39,200 mg/L"}]}, {"smiles": "OC(C(F)(F)F)C(F)(F)F", "note": "[R′4]", "values": [{"measurement": "LD50 Oral rat", "setting": "[3]", "value": "1040 to 1500", "unit": "mg/kg"}, {"measurement": "VP", "setting": "[1]; at 20° C.", "value": 102, "unit": "torr"}, {"measurement": "VP", "setting": "[1]; at 25° C.", "value": 159, "unit": "torr"}, {"measurement": "Solubility", "setting": "[2]", "value": 7770, "unit": "mg/L"}, {"measurement": "LC50 Inhalation rat", "setting": "[4]", "value": 1974, "unit": "ppm/4H"}]}, {"smiles": "COc1ccc2c(c1)[C@]13CCCC[C@@H]1[C@H](C2)N(C)CC3", "note": "[dextromethorphan, Dextromethorphan hydrobromide, reference compound]", "values": [{"measurement": "potency to inhibit AMMC metabolism", "setting": "[5]", "value": "similar"}]}, {"smiles": "CN1CC[C@@]23CCCC[C@@H]2[C@@H]1Cc1ccc(OCC(F)(F)F)cc13", "note": "[trifluoroethyldextrorphan, O-trifluoroethyldextrorphan]", "values": [{"measurement": "trifluoroacetaldehyde captured from the headspace of the microsomal incubation mixture", "setting": "[6]", "value": 120, "unit": "ng"}, {"measurement": "potency to inhibit AMMC metabolism", "setting": "[5]; human recombinant CYP2D6 1.5 pmole, AMMC 1.5 μM, compounds 10^−10 M to 10^−5 M, 45 minutes, FIG. 5", "value": "similar"}]}]}
